Test results taken from publication PMC4368042 (ACS Chemical Neuroscience, 2015).
Entries after “also recorded” stand apart in the source; their conditions may differ.

Tests used:
[1] = target: hM3 (native human M3 receptor) (Homo sapiens, UniProt P20309); assay: cell-based; type: cell-based; conditions: for Emax: read-out: hM3 Emax (relative to acetylcholine)
[2] = target: hM3Dq (Homo sapiens, UniProt P20309, A239G/Y149C); assay: cell-based; type: cell-based; conditions: for Emax: read-out: hM3Dq Emax (relative to CNO); for hM3Dq potency decrease on replacing methyl with n-propyl: 4d vs 4a, 5d vs 5a
[3] = target: T1, 5HT2C (Homo sapiens, UniProt P28335); assay: 5HT2C radioligand binding assay; conditions: for Ki: Ki 5HT2C, radioligand binding
T1 sequence (P28335 33-458): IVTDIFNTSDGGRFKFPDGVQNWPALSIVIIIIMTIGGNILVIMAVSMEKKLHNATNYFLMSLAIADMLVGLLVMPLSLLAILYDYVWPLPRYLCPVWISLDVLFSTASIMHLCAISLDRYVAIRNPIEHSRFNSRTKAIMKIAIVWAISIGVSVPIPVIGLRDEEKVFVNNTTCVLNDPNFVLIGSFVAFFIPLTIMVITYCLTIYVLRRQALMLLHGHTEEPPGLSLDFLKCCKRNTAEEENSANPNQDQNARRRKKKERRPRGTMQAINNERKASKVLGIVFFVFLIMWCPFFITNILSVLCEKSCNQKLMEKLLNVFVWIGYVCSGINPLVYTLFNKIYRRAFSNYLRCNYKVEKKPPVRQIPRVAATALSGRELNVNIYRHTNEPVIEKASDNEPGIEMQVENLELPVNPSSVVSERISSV

[4] = target: T2, α1A (Homo sapiens, UniProt P35348); assay: α1A radioligand binding assay; conditions: for Ki: Ki α1A, radioligand binding
T2 sequence (P35348 1-466): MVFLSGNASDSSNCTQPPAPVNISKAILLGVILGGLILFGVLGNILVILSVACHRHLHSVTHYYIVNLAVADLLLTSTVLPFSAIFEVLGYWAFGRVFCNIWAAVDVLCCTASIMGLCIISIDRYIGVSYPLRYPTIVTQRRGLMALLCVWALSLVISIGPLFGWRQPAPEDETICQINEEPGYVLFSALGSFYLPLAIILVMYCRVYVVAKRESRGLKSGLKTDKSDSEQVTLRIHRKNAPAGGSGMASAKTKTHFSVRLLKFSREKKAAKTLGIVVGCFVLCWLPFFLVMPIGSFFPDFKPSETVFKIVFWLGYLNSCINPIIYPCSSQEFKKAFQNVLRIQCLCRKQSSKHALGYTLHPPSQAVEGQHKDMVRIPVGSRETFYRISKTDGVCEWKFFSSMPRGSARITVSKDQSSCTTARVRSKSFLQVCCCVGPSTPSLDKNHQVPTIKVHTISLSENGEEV

[5] = target: 5HT2A (Homo sapiens, UniProt P28223); assay: biochemical; type: binding; conditions: for Ki: Ki 5HT2A, radioligand binding
[6] = target: H1 (Homo sapiens, UniProt P35367); assay: biochemical; type: binding; conditions: for Ki: Ki H1, radioligand binding
Sequence of H1 (P35367 whole entry): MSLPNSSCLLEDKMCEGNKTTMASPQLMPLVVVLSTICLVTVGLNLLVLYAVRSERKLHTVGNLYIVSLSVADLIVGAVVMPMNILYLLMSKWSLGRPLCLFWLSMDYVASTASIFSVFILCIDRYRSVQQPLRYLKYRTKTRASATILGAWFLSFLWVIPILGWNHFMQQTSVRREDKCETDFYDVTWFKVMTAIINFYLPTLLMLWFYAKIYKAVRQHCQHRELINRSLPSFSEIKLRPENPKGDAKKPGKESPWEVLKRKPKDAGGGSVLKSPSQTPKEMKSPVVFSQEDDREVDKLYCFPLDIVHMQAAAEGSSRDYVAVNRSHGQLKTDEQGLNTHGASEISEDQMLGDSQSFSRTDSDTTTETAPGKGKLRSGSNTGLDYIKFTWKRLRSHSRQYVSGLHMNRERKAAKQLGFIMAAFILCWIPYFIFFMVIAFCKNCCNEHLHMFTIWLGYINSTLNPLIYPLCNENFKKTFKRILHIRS

Sequence of hM3 (native human M3 receptor) (P20309 whole entry): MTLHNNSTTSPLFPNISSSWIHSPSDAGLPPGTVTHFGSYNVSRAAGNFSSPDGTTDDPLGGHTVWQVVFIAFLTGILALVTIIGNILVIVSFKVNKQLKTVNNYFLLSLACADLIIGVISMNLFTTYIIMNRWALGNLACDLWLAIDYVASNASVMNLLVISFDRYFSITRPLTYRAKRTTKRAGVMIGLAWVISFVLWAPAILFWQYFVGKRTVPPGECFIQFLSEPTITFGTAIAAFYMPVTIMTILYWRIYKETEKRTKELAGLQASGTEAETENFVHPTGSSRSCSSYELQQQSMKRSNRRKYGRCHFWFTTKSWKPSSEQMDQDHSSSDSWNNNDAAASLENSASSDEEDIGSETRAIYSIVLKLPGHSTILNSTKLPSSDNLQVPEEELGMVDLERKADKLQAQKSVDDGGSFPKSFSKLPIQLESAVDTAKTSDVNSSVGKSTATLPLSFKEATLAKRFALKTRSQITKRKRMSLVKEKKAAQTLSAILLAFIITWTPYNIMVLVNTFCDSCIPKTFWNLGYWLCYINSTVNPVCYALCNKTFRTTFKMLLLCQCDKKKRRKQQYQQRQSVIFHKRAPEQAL
Sequence of 5HT2A (P28223 whole entry, species assumed): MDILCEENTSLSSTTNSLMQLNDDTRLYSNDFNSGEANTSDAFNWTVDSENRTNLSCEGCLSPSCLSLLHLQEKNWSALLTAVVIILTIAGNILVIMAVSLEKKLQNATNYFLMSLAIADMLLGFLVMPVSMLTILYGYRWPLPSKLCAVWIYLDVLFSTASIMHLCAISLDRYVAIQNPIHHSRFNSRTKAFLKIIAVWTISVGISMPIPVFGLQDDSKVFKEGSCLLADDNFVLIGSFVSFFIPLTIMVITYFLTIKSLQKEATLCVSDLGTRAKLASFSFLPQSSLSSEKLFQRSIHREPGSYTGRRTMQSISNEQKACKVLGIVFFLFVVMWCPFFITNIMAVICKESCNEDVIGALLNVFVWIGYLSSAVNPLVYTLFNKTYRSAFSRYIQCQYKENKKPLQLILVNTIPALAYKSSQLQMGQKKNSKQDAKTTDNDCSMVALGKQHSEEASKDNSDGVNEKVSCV
Sequence of hM3Dq (P20309 whole entry Y149C/A239G): as the sequence (P20309 whole entry) above, with Y149C, A239G counted along it

Compound | EC50 [1] [nM] | agonist activity for hM3 (in words) [1] | EC50 [2] [nM] | Emax [2] [%] | agonist activity for hM3Dq (in words) [2] | other results
CC[N+]1([O-])CCN(C2=Nc3ccccc3Nc3ccccc32)CC1 [Compound 23, 4-(5H-Dibenzo[b,e][1,4]diazepin-11-yl)-1-ethylpiperazine N-oxide] | > 30000 | did not exhibit any agonist activity | 220 | 59 |  | fold less potent for hM3Dq than compound 5b [2]: about 10 fold
CS(=O)(=O)N1CCN(C2=Nc3cc(Cl)ccc3Nc3ccccc32)CC1 [Compound 14, 8-Chloro-11-(4-(methylsulfonyl)piperazin-1-yl)-5H-dibenzo[b,e][1,4]diazepine] | > 30000 | did not activate | > 30000 |  | did not display any agonist activity | 
CC(=O)OCC[N+](C)(C)C [ACh, acetylcholine, reference compound] |  | potent hM3 agonist |  |  | does not activate | 
O=C1CN(C2=Nc3cc(Cl)ccc3Nc3ccccc32)CCN1 [Compound 7, 4-(8-Chloro-5H-dibenzo[b,e][1,4]diazepin-11-yl)piperazin-2-one] | > 30000 | did not activate | > 30000 |  | did not display any agonist activity | 
C[N+]1(C)CCN(C2=Nc3cc(Cl)ccc3Nc3ccccc32)CC1.[I-] [Compound 6, 4-(8-Chloro-5H-dibenzo[b,e][1,4]diazepin-11-yl)-1,1-dimethylpiperazin-1-ium iodide] | 9.5 |  | 0.069 | 100 |  | selectivity for hM3Dq over hM3 [1]: > 100 fold; Emax [1]: 92%; fold more potent than compound 4a (clozapine) at hM3Dq [2]: about 15 fold
CC[N+]1([O-])CCN(C2=Nc3cc(Cl)ccc3Nc3ccccc32)CC1 [Compound 5b, 4-(8-Chloro-5H-dibenzo[b,e][1,4]diazepin-11-yl)-1-ethylpiperazine N-oxide] | > 30000 |  | 19 | 50 |  | Ki [3]: 5100 nM; Ki [4]: > 1000 nM; Ki [5]: 1900 nM; selectivity for hM3Dq over H1 [6]: about 8 fold; Ki [6]: 160 nM
O=C1NC(=O)C2(CCN(C3=Nc4cc(Cl)ccc4Nc4ccccc43)CC2)N1 [Compound 9, 8-(8-Chloro-5H-dibenzo[b,e][1,4]diazepin-11-yl)-1,3,8-triazaspiro[4.5]decane-2,4-dione] | > 30000 | did not activate | > 30000 |  | did not activate | 
CN1CCN(C2=Nc3ccccc3Cc3ccccc32)CC1 [perlapine, reference compound] |  |  |  |  |  | selectivity for hM3Dq over hM3 [1]: > 10 000 fold
CC(=O)N1CCN(C2=Nc3cc(Cl)ccc3Nc3ccccc32)CC1 [Compound 12, 1-(4-(8-Chloro-5H-dibenzo[b,e][1,4]diazepin-11-yl)piperazin-1-yl)ethanone] | > 30000 | did not activate | > 30000 |  | did not display any agonist activity | 
CC(C)N1CCN(C2=Nc3cc(Cl)ccc3Nc3ccccc32)CC1 [Compound 4c, 8-Chloro-11-(4-isopropylpiperazin-1-yl)-5H-dibenzo[b,e][1,4]diazepine] | > 30000 |  | 13 | 45 |  | Ki [3]: 17 nM; Ki [4]: 37 nM; Ki [6]: 4.6 nM
CCN1CCN(C2=Nc3ccccc3Nc3ccccc32)CC1 [Compound 22, 11-(4-Ethylpiperazin-1-yl)-5H-dibenzo[b,e][1,4]diazepine] |  | did not exhibit any agonist activity |  | 81 |  | 
CCCN1CCN(C2=Nc3cc(Cl)ccc3Nc3ccccc32)CC1 [Compound 4d, 8-Chloro-11-(4-propylpiperazin-1-yl)-5H-dibenzo[b,e][1,4]diazepine] | > 30000 |  | 71 | 50 |  | hM3Dq potency decrease on replacing methyl with n-propyl [2]: approximately 70 fold
CCC[N+]1([O-])CCN(C2=Nc3cc(Cl)ccc3Nc3ccccc32)CC1 [Compound 5d, 4-(8-Chloro-5H-dibenzo[b,e][1,4]diazepin-11-yl)-1-propylpiperazine N-oxide] | > 30000 |  | 740 | 79 |  | hM3Dq potency decrease on replacing methyl with n-propyl [2]: ~100 fold
NC1(C(=O)O)CCN(C2=Nc3cc(Cl)ccc3Nc3ccccc32)CC1 [Compound 10, 4-Amino-1-(8-chloro-5H-dibenzo[b,e][1,4]diazepin-11-yl)piperidine-4-carboxylic acid] | > 30000 | did not activate | > 30000 |  | did not activate | 
CC(C)[N+]1([O-])CCN(C2=Nc3cc(Cl)ccc3Nc3ccccc32)CC1 [Compound 5c, 4-(8-Chloro-5H-dibenzo[b,e][1,4]diazepin-11-yl)-1-isopropylpiperazine N-oxide] | > 30000 |  | 190 | 45 |  | Ki [3]: 6700 nM; selectivity for hM3Dq over α1A [4]: about 2 fold; Ki [4]: 320 nM; Ki [5]: 5200 nM; Ki [6]: 6200 nM
c1ccc2c(c1)N=C(N1CCNCC1)c1ccccc1N2 [Compound 21, 11-(Piperazin-1-yl)-5H-dibenzo[b,e][1,4]diazepine] |  | do not activate; also recorded: inactive | 1.7 | 100 |  | Emax [1]: ~20%; selectivity for hM3Dq over 5HT2C [3]: 100 fold; Ki [3]: 170 nM; selectivity for hM3Dq over α1A [4]: 165 fold; Ki [4]: 280 nM; selectivity for hM3Dq over 5HT2A [5]: 40 fold; Ki [5]: 66 nM; selectivity for hM3Dq over H1 [6]: 3.5 fold; Ki [6]: 6 nM
